Where two headings read alike, the source gives them in different places.
Legend:
[1] = Antioxidant activity by DPPH test; conditions: 30 min, room temperature, dark, 517 nm
Protocol: Several concentrations of the test fraction in MeOH were prepared. Aliquots of different concentrations of the fraction (1 mL) were added to the DPPH methanolic solution (1.0 mL, 0.1 mM), and the mixtures were shaken vigorously and left for 30 min at room temperature in the dark.
In the same procedure, butylated hydroxyanisole (BHA) was used as the positive control. The DPPH radical scavenging activity of the fractions was expressed as IC50 (μg/mL), which is obtained from linear regression plot between concentrations of the test fractions and percent inhibitions.

[2] = molecular target: T1, acetylcholinesterase (AChE, E.C. 3.1.1.7, Type V-S) (Electrophorus electricus, UniProt O42275); experiment: biochemical
T1 construct: Type V-S, lyophilized powder, from electric eel; purchased Sigma-Aldrich; host or cells: electric eel
Text: (§1) Acetylcholinesterase (AChE, E.C. 3.1.1.7, Type V-S, lyophilized powder, from electric eel, 1000 units), butyrylcholinesterase (BChE, E.C. 3.1.1.8, from equine serum), acetylthiocholine iodide (ATCI), and 5,5-dithiobis-2-nitrobenzoic acid (DTNB) were purchased from Sigma-Aldrich. Potassium dihydrogen phosphate, dipotassium hydrogen phosphate, potassium hydroxide, and sodium hydrogen carbonate were obtained from Fluka. Solvents for the extraction and column chromatography (CC) were of technical grade and redistilled before use. Deuterated solvents (100 atom % D) were obtained from Sigma-Aldrich.
(§2) In vitro anti-ChEI activity was performed against acetylcholinesterase (AChE, E.C. 3.1.1.7, Type V-S, lyophilized powder, from electric eel, 1000 units) and butyrylcholinesterase (BChE, E.C. 3.1.1.8, from equine serum) using the modified Ellman's method. […] Each well consisted of 50 μL potassium phosphate buffer (KH2PO4/K2HPO4, 0.1 M, pH 8), 25 μL prepared sample as described above, and AChE enzyme (25 μL) with a final concentration of 0.22 units/mL in the buffer. They were preincubated for 15 min at room temperature, and then, 125 μL DTNB (3 mM in buffer) was added to the mixture. […] In parallel, a blank containing all components without enzyme was used in order to account for the nonenzymatic reaction. […] The IC50 values were determined graphically from log concentration vs. % of inhibition curves. All experiments were performed in triplicate. BChE inhibition assay was performed in the same method.

[3] = molecular target: T2, butyrylcholinesterase (BChE, E.C. 3.1.1.8) (Equus caballus, UniProt P81908); experiment: biochemical
T2 construct: butyrylcholinesterase (BChE, E.C. 3.1.1.8, from equine serum); purchased Sigma-Aldrich; host or cells: equine serum
T2 sequence (P81908 whole entry): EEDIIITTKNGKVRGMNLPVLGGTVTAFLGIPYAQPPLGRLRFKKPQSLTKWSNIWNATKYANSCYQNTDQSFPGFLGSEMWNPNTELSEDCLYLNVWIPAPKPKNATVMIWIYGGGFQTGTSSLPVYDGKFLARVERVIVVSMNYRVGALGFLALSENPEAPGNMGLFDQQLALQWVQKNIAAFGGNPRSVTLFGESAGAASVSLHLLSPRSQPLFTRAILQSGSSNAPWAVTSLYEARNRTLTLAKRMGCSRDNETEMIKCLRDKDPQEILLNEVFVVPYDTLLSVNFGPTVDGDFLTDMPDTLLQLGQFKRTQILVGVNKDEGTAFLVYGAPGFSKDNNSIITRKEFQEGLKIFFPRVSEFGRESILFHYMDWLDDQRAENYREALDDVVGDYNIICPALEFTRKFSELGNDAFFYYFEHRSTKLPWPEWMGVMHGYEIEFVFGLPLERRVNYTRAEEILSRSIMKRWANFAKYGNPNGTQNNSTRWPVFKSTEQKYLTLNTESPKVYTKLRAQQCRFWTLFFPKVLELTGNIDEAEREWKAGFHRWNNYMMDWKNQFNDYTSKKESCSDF
Text: as §1, §2

acetylcholinesterase = conditions: cited from earlier work
BChE = system: BChE; design: method as in PMID 24354178; conditions: cited from earlier work

T1 sequence (O42275 24-633): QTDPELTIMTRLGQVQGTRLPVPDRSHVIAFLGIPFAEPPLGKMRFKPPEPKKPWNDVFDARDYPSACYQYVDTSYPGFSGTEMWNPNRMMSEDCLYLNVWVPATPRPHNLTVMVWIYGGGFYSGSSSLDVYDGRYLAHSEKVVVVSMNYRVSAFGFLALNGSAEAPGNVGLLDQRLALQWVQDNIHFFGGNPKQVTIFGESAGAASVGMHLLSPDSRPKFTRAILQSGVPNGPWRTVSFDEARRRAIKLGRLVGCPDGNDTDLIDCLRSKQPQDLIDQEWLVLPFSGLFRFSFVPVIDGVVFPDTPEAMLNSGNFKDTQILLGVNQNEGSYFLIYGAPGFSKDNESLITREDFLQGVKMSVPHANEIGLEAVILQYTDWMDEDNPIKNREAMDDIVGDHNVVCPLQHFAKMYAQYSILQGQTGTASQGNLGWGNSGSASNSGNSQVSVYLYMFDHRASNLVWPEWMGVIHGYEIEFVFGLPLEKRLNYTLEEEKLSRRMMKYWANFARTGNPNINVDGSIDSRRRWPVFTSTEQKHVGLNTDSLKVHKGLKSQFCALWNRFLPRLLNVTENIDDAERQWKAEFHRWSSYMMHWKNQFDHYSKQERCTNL

COc1ccc(O)c(C(C)(C)C)c1 [BHA, butylated hydroxyanisole]
DPPH free radical scavenging IC50 [1]: 3.79 ± 0.37 µg/mL

CC[C@H](CC[C@@H](C)[C@H]1CC[C@H]2[C@@H]3CC=C4C[C@@H](O)CC[C@]4(C)[C@H]3CC[C@]12C)C(C)C [compound 1, β-Sitosterol]
IC50 [2]: > 100 µM | IC50 [3]: > 100 µM

CC(=O)O[C@H]1CC[C@@]2(C)C(CC[C@]3(C)C2CC=C2C4CC(C)(C)CC[C@]4(C(=O)O)CC[C@]23C)C1(C)C (stereo partly drawn) [compound 2, 3-O-β-Acetyloleanolic acid]
IC50 [2]: > 100 µM | IC50 [3]: 77.13 ± 0.01 µM

CC1(C)CC[C@]2(C(=O)O)CC[C@]3(C)C(=CCC4[C@@]5(C)CC[C@H](OC(=O)/C=C/c6ccc(O)cc6)C(C)(C)C5CC[C@]43C)C2C1 (stereo partly drawn) [compound 3, 3-O-(Z)-Coumaroyl oleanolic acid]
IC50 ([2]; isolated compounds, mean ± SD, three independent experiments, read-out: AChE IC50): > 100 µM | IC50 ([3]; isolated compounds, mean ± SD, three independent experiments, read-out: BChE IC50): > 100 µM

C=C(C)[C@@H]1CC[C@]2(C(=O)O)CC[C@]3(C)[C@H](CC[C@@H]4[C@@]5(C)CC[C@H](O)C(C)(C)[C@@H]5CC[C@]43C)[C@@H]12 [compound 4, Betulinic acid]
IC50 [2]: > 100 µM | IC50 [3]: > 100 µM

CC1(C)CC[C@]2(C(=O)O)CC[C@]3(C)C(=CC[C@@H]4[C@@]5(C)CC[C@H](O)C(C)(C)[C@@H]5CC[C@]43C)[C@@H]2C1 [compound 5, Oleanolic acid]
IC50 ([3]; BChE IC50, isolated compounds, mean ± SD, three independent experiments): 72.2 ± 0.42 µM

COc1ccc2c3c1O[C@H]1C[C@@H](O)C=C[C@@]31CCN(C)C2 [galantamine]
inhibitory activity against acetylcholinesterase (acetylcholinesterase): significant inhibitory activity

COc1ccc(C(C)=O)c(O)c1 [paeonol]
BChE inhibitory activity (BChE): selective BChE inhibitory activity

CNC(=O)Oc1ccc2c(c1)[C@]1(C)CCN(C)[C@@H]1N2C [physostigmine]
inhibitory activity against acetylcholinesterase (acetylcholinesterase): significant inhibitory activity

CN1CC[C@@]23C=C[C@H](O)C[C@@H]2Oc2c(O)ccc(c23)C1 [sanguinine]
inhibitory activity against acetylcholinesterase (acetylcholinesterase): significant inhibitory activity

hydroperoxy-24-vinylcholesterol
BChE inhibitory activity (BChE): selective BChE inhibitory activity

— paper PMC8313326, “Phytochemical Analysis and Evaluation of Biological Activity of Lawsonia inermis Seeds Related to Alzheimer's Disease” (Evidence-based Complementary and Alternative Medicine : eCAM, 2021)
